Each structure is given as a SMILES string. Bridge positions count the residues as written; N and C are the ends. Square brackets hold non-standard residues; d marks the D form. Peptide text beside a SMILES is read from it. R8 = C=CCCCCCC[C@@](C)(N)C(=O)O; S5 = C=CCCC[C@](C)(N)C(=O)O; Nle = CCCC[C@H](N)C(=O)O

The assay addresses T1, flag-tagged HIF1α (AA 786-826) / His6-tagged p300 (AA 323-423) complex (Homo sapiens, UniProt Q09472).
T1 construct: His6-tagged p300 (AA 323-423); made in house; host or cells: E. coli (pETDuet vector)
The experiment in a line: HIF1α p300 displacement assay (TR FRET, +CHAPS). Type of assay: binding. As to conditions: read-out: IC50 (nM) (HIF1α_p300 Displacement + CHAPS). As for the experimental part: The ability of peptides to displace HIF1α c-terminal trans-activation domain from p300-CH was measured by a TR FRET assay. A complex of flag-tagged HIF1α (AA 786-826) and His6-tagged p300 (AA 323-423) was co-expressed using pETDuet vector (EMDMillipore, Bellrica Mass.) and purified from E. coli in the presence of 0.1 mM ZnSO4. The complex was diluted to 300 nM final in complete assay media and competitor peptides were added. The complete assay media contained 150 mM NaCl (Sigma +S5150 or equivalent), 20 mM HEPES pH 7.4 (Boston Bioproducts, Ashland, Mass.; #BB-2076), 7.5 mM CHAPS (Thermo #28300 or equivalent), and 1 mM DTT. Protein and peptide were incubated at room temperature for 1 hour before the addition of anti-Flag-K and anti-6×HIS-D2 (CisBio, Bedford Mass.) HTRF reconstitution buffer (50 mM Phosphate pH 7, 0.8 Potassium Flouride, BSA 0.2%)^1 to a final concentration of 0.5 μM and 4 nM respectively. The reaction continued for an additional two hours at room temperature. The reaction was read on a TECAN F500 plate reader with settings recommended by CisBio. The ratio of donor to acceptor fluorescence was calculated. The resulting data was analyzed with Graphpad Prism 5.0. IC50 values were calculated for both proteins using the One Site Fit-LogIC50 equation and presented in the column “IC50 (nM) (HIF1α_p300 Displacement+CHAPS)” of Table 6. ^1 Cisbio USA, Bedford, Mass.; 61HISDLB (lot 007A), 61FG2KLB (024A), HTRF Buffer (62RB3RDF)
(Time-resolved FRET reads energy transfer from a long-lived donor to a nearby acceptor.)
The term IC50 denotes the concentration that gives 50% inhibition. `CC[C@H](C)[C@H](NC(=O)[C@H](Cc1ccccc1)NC(C)=O)C(=O)N[C@@H](CC(=O)O)C(=O)N[C@@H](CCC(=O)O)C(=O)N[C@]1(C)CCCCCCC=CCCC[C@@](C)(C(=O)N[C@@H](CCC(=O)O)C(=O)N[C@@H](CCSC)C(=O)NCC(=O)N[C@@H](CC(C)C)C(N)=O)NC(=O)[C@H](C(C)C)NC(=O)[C@H](CC(C)C)NC(=O)[C@H](CO)NC(=O)[C@H](CCSC)NC(=O)[C@H](CC(C)C)NC(=O)[C@H](C(C)C)NC1=O` [SP-187] (Ac-FIDE[R8]VLMSLV[S5]EMGL-NH2; staple 5-12): the IC50 was > 700 nM.
For `CC[C@H](C)[C@H](NC(=O)[C@H](Cc1ccccc1)NC(C)=O)C(=O)N[C@@H](CC(=O)O)C(=O)N[C@@H](CCC(=O)O)C(=O)N[C@]1(C)CCCCCCC=CCCC[C@@](C)(C(=O)N[C@@H](CCC(=O)O)C(=O)N[C@@H](CCSC)C(=O)NCC(=O)N[C@@H](CC(C)C)C(=O)N[C@@H](CC(=O)O)C(N)=O)NC(=O)[C@H](C(C)C)NC(=O)[C@H](CC(C)C)NC(=O)[C@H](CO)NC(=O)[C@H](CCSC)NC(=O)[C@H](CC(C)C)NC(=O)[C@H](C(C)C)NC1=O` [SP-188] (Ac-FIDE[R8]VLMSLV[S5]EMGLD-NH2; staple 5-12) the value was > 700 nM; for `CC[C@H](C)[C@H](NC(=O)[C@H](Cc1ccccc1)NC(C)=O)C(=O)N[C@@H](CC(=O)O)C(=O)N[C@@H](CCC(=O)O)C(=O)N[C@]1(C)CCCCCCC=CCCC[C@@](C)(C(=O)N[C@@H](CCC(=O)O)C(=O)N[C@@H](CCSC)C(=O)NCC(=O)N[C@@H](CC(C)C)C(=O)N[C@@H](CC(=O)O)C(=O)N[C@@H](CCCNC(=N)N)C(N)=O)NC(=O)[C@H](C(C)C)NC(=O)[C@H](CC(C)C)NC(=O)[C@H](CO)NC(=O)[C@H](CCSC)NC(=O)[C@H](CC(C)C)NC(=O)[C@H](C(C)C)NC1=O` [SP-189] (Ac-FIDE[R8]VLMSLV[S5]EMGLDR-NH2; staple 5-12), > 700 nM; for `CCCC[C@@H]1NC(=O)[C@H](CC(C)C)NC(=O)[C@H](C(C)C)NC(=O)[C@@](C)(NC(=O)[C@H](CCC(=O)O)NC(=O)[C@H](CC(=O)O)NC(=O)[C@@H](NC(=O)[C@H](Cc2ccccc2)NC(C)=O)[C@@H](C)CC)CCCC=CCCCC2(CCCC=CCCC[C@](C)(C(=O)N[C@@H](CCCC)C(=O)N[C@@H](C)C(=O)N[C@@H](CC(C)C)C(N)=O)NC(=O)[C@H]([C@@H](C)CC)NC(=O)[C@H](C(C)C)NC(=O)[C@H](CC(C)C)NC2=O)NC1=O` (some centres unmarked) [SP-204], > 700 nM.
For `CCCC[C@H](NC(=O)[C@H](CC(C)C)NC(=O)[C@@H](NC(=O)[C@H](C)NC(=O)[C@H](CCC(=O)O)NC(=O)[C@H](C)NC(=O)[C@@H](NC(=O)[C@H](Cc1ccccc1)NC(C)=O)[C@@H](C)CC)C(C)C)C(=O)N[C@@]1(C)CCCC=CCCC[C@@](C)(C(=O)N[C@@H](CCCC)C(=O)N[C@@H](C)C(=O)N[C@@H](CC(C)C)C(=O)N[C@@H](CC(=O)O)C(=O)N[C@@H](C)C(=O)N[C@H](C(N)=O)[C@@H](C)CC)NC(=O)[C@H]([C@@H](C)CC)NC(=O)[C@H](C(C)C)NC(=O)[C@H](CC(C)C)NC1=O` [SP-222] (Ac-FIAEAVL[Nle][S5]LVI[S5][Nle]ALDAI-NH2; staple 9-13), the IC50 lay within 200 to 400 nM.
`CCCC[C@H](NC(=O)[C@H](CC(C)C)NC(=O)[C@@H](NC(=O)[C@H](C)NC(=O)[C@H](CCC(=O)O)NC(=O)[C@H](C)NC(=O)[C@@H](NC(=O)[C@H](Cc1ccccc1)NC(C)=O)[C@@H](C)CC)C(C)C)C(=O)N[C@@]1(C)CCCC=CCCC[C@@](C)(C(=O)N[C@@H](CCCC)C(=O)N[C@@H](C)C(=O)N[C@@H](CC(C)C)C(=O)N[C@@H](C)C(=O)N[C@@H](C)C(=O)N[C@H](C(N)=O)[C@@H](C)CC)NC(=O)[C@H]([C@@H](C)CC)NC(=O)[C@H](C(C)C)NC(=O)[C@H](CC(C)C)NC1=O` [SP-223] (Ac-FIAEAVL[Nle][S5]LVI[S5][Nle]ALAAI-NH2; staple 9-13): the IC50 is > 700 nM.
For `CCCC[C@H](NC(=O)[C@H](Cc1ccccc1)NC(=O)[C@@H](NC(=O)[C@H](CCC(=O)O)NC(=O)[C@H](CCC(=O)O)NC(=O)[C@H](CC(=O)O)NC(=O)[C@@H](NC(=O)[C@H](Cc1ccccc1)NC(C)=O)[C@@H](C)CC)C(C)C)C(=O)N[C@@]1(C)CCCC=CCCC[C@@](C)(C(=O)N[C@@H](CCCC)C(=O)N[C@@H](C)C(=O)N[C@@H](CC(C)C)C(=O)N[C@@H](CC(C)C)C(N)=O)NC(=O)[C@H]([C@@H](C)CC)NC(=O)[C@H](C(C)C)NC(=O)[C@H](CC(C)C)NC1=O` [SP-242] (Ac-FIDEEVF[Nle][S5]LVI[S5][Nle]ALL-NH2; staple 9-13) the value was ≤ 200 nM.
Take `CCCC[C@H](NC(=O)[C@H](CCC(=O)O)NC(=O)[C@@H](NC(=O)[C@]1(C)CCCC=CCCC[C@](C)(NC(=O)[C@@H](NC(=O)[C@H](CCC(=O)O)NC(=O)[C@H](CCC(=O)O)NC(=O)[C@H](CC(=O)O)NC(=O)[C@@H](NC(=O)[C@H](CC(N)=O)NC(=O)[C@@H](NC(=O)[C@H](CCC(N)=O)NC(=O)[C@H](CC(=O)O)NC(=O)[C@H](CC(C)C)NC(=O)[C@H](C)NC(=O)[C@H](CCCNC(=N)N)NC(=O)[C@]2(C)CCCC=CCCC[C@](C)(NC(=O)[C@H](CCC(N)=O)NC(=O)[C@H](CC(C)C)NC(=O)[C@H](CC(C)C)NC(C)=O)C(=O)N[C@@H](CCC(=O)O)C(=O)N[C@@H](CCC(=O)O)C(=O)N[C@@H](CC(C)C)C(=O)N2)C(C)C)[C@@H](C)CC)C(C)C)C(=O)N[C@@H](CCCC)C(=O)N[C@@H](CO)C(=O)N[C@@H](CC(C)C)C(=O)N1)[C@@H](C)CC)C(=O)NCC(N)=O` [SP-302] (Ac-LLQ[S5]EEL[S5]RALDQVNIDEEV[S5][Nle]SL[S5]IE[Nle]G-NH2; staple 4-8, 21-25): the IC50 was > 700 nM.
Turning to `CCCC[C@H](NC(=O)[C@H](CCC(=O)O)NC(=O)[C@@H](NC(=O)[C@]1(C)CCCC=CCCC[C@](C)(NC(=O)[C@@H](NC(=O)[C@H](CCC(=O)O)NC(=O)[C@H](CCC(=O)O)NC(=O)[C@H](CC(=O)O)NC(=O)[C@@H](NC(=O)[C@H](CC(N)=O)NC(=O)[C@@H](NC(=O)[C@H](CCC(N)=O)NC(=O)[C@]2(C)CCCC=CCCC[C@](C)(NC(=O)[C@H](CC(C)C)NC(=O)[C@H](CCC(=O)O)NC(=O)[C@H](CCC(=O)O)NC(=O)CNC(=O)[C@H](CCC(N)=O)NC(=O)[C@H](CC(C)C)NC(=O)[C@H](CC(C)C)NC(C)=O)C(=O)N[C@@H](CCCNC(=N)N)C(=O)N[C@@H](C)C(=O)N[C@@H](CC(C)C)C(=O)N2)C(C)C)[C@@H](C)CC)C(C)C)C(=O)N[C@@H](CCCC)C(=O)N[C@@H](CO)C(=O)N[C@@H](CC(C)C)C(=O)N1)[C@@H](C)CC)C(=O)NCC(N)=O` [SP-304] (Ac-LLQGEEL[S5]RAL[S5]QVNIDEEV[S5][Nle]SL[S5]IE[Nle]G-NH2; staple 8-12, 21-25), the IC50 is > 700 nM.
As to `CCCC[C@@H]1NC(=O)[C@](C)(NC(=O)[C@@H](NC(=O)[C@H](CCC(=O)O)NC(=O)[C@H](CCC(=O)O)NC(=O)[C@H](CC(=O)O)NC(=O)[C@@H](NC(=O)[C@H](CC(N)=O)NC(=O)[C@@H](NC(=O)[C@H](CCC(N)=O)NC(=O)[C@H](CC(=O)O)NC(=O)[C@H](CC(C)C)NC(=O)[C@H](C)NC(=O)[C@H](CCCNC(=N)N)NC(=O)[C@]2(C)CCCC=CCCC[C@](C)(NC(=O)[C@H](CCC(N)=O)NC(=O)[C@H](CC(C)C)NC(=O)[C@H](CC(C)C)NC(C)=O)C(=O)N[C@@H](CCC(=O)O)C(=O)N[C@@H](CCC(=O)O)C(=O)N[C@@H](CC(C)C)C(=O)N2)C(C)C)[C@@H](C)CC)C(C)C)CCCCCCC=CCCC[C@@](C)(C(=O)NCC(N)=O)NC(=O)[C@H](CCC(=O)O)NC(=O)[C@H]([C@@H](C)CC)NC(=O)[C@H](C(C)C)NC(=O)[C@H](CC(C)C)NC(=O)[C@H](CO)NC1=O` [SP-314] (Ac-LLQ[S5]EEL[S5]RALDQVNIDEEV[R8][Nle]SLVIE[S5]G-NH2; staple 4-8, 21-28), the IC50 was > 700 nM.
The figure for `CCCC[C@@H]1NC(=O)[C@](C)(NC(=O)[C@@H](NC(=O)[C@H](CCC(=O)O)NC(=O)[C@H](CCC(=O)O)NC(=O)[C@H](CC(=O)O)NC(=O)[C@@H](NC(=O)[C@H](CC(N)=O)NC(=O)[C@@H](NC(=O)[C@H](CCC(N)=O)NC(=O)[C@H](CC(=O)O)NC(=O)[C@H](CC(C)C)NC(=O)[C@]2(C)CCCC=CCCC[C@](C)(NC(=O)[C@H](CCC(=O)O)NC(=O)CNC(=O)[C@H](CCC(N)=O)NC(=O)[C@H](CC(C)C)NC(=O)[C@H](CC(C)C)NC(C)=O)C(=O)N[C@@H](CC(C)C)C(=O)N[C@@H](CC(C)C)C(=O)N[C@@H](CCCNC(=N)N)C(=O)N2)C(C)C)[C@@H](C)CC)C(C)C)CCCCCCC=CCCC[C@@](C)(C(=O)NCC(N)=O)NC(=O)[C@H](CCC(=O)O)NC(=O)[C@H]([C@@H](C)CC)NC(=O)[C@H](C(C)C)NC(=O)[C@H](CC(C)C)NC(=O)[C@H](CO)NC1=O` [SP-315] (Ac-LLQGE[S5]LLR[S5]LDQVNIDEEV[R8][Nle]SLVIE[S5]G-NH2; staple 6-10, 21-28) is > 700 nM.

(Values after US20190225650A1, “PEPTIDOMIMETIC MACROCYCLES AND USE THEREOF IN REGULATING HIF1ALPHA” (AILERON THERAPEUTICS, INC., priority 2013, published 2019).)
